Series [1] concerns A549. Briefly: cells. The following applies: Homo sapiens, A549, 72 h.
In series [2] the test system is A549. Kind of series: Inhibition of cell migration in human A549 cells assessed as wound recovery at 0.2 uM measured after 72 hrs by inverted microscopic analysis (reference value: 53.4 %). The class given is functional. Also on record: scale not given: the % may be the effect or the level left.
For series [3], the system named is A549. Kind of series: Inhibition of cell migration in human A549 cells assessed as wound recovery at 0.6 uM measured after 72 hrs by inverted microscopic analysis (reference value: 53.4 %). Also noted: scale not given: the % may be the effect or the level left. It is filed as functional.
Series [4] is described as follows: Stability in pooled human plasma assessed as half life at 2 uM measured upto 120 mins by LC-MS/MS analysis. It is filed as ADME, cell-free.
Series [5] deals with A549. Briefly: Inhibition of cell migration in human A549 cells assessed as wound recovery at 0.6 uM measured after 24 hrs by inverted microscopic analysis (reference value: 28.2 %). It is filed as functional. Also on record: scale not given: the % may be the effect or the level left.
Series [6] can be described thus: Stability in pooled human plasma assessed as parent compound remaining at 2 uM measured after 60 mins by LC-MS/MS analysis (reference value: 100%). It is filed as ADME, cell-free. As to conditions: read-out: Stability.
The subject of series [7] is A549. Kind of series: Antiinvasive activity in human A549 cells assessed as inhibition of cell invasion by measuring reduction in cell count incubated for 72 hrs by crystal violet staining based transwell assay. The class given is functional. The following applies: dose 0.2-1.8 µM, DDE = dose-dependent effect.
Series [8] is described as follows: Stability in pooled human plasma assessed as parent compound remaining at 2 uM measured after 10 mins by LC-MS/MS analysis (reference value: 100%). The class given is ADME, cell-free. The following applies: read-out: Stability.
A short description of series [9]: Apparent permeability across basolateral to apical side in human Caco-2 cells at 2 uM incubated for 2 hrs by LC-MS/MS analysis. The class given is ADME, cell-based. (Passage across Caco-2 layers is used to estimate intestinal permeability.)
The test system of series [10] is A549. Kind of series: Inhibition of cell migration in human A549 cells assessed as wound recovery at 1.8 uM measured after 72 hrs by inverted microscopic analysis (reference value: 53.4 %). Also on record: scale not given: the % may be the effect or the level left. It is filed as functional.
The test system of series [11] is A549. Kind of series: Inhibition of cell migration in human A549 cells assessed as wound recovery at 0.2 uM measured after 24 hrs by inverted microscopic analysis (reference value: 28.2 %). Also noted: scale not given: the % may be the effect or the level left. It is filed as functional.
Series [12] is described as follows: Stability in pooled human plasma assessed as parent compound remaining at 2 uM measured after 30 mins by LC-MS/MS analysis (reference value: 100%). It is filed as ADME, cell-free. The following applies: read-out: Stability.
Series [13] in a line: Stability in pooled human plasma assessed as parent compound remaining at 2 uM measured after 120 mins by LC-MS/MS analysis (reference value: 100%). It is filed as ADME, cell-free. The following applies: read-out: Stability.
Series [14] can be described thus: Apparent permeability across apical to basolateral side in human Caco-2 cells at 2 uM incubated for 2 hrs by LC-MS/MS analysis. It is filed as ADME, cell-based.
For series [15], the system named is A549. Kind of series: Inhibition of cell migration in human A549 cells assessed as wound recovery at 1.8 uM measured after 24 hrs by inverted microscopic analysis (reference value: 28.2 %). Also on record: scale not given: the % may be the effect or the level left. It is filed as functional.

We go through twelve compounds from ChEMBL document CHEMBL5120849, “Identification of novel and potent PROTACs targeting FAK for non-small cell lung cancer: Design, synthesis, and biological study” (Eur J Med Chem, 2022).

Consider `CNC(=O)c1ccccc1Nc1nc(Nc2ccc(N3CCN(CCCCCC(=O)NCCNc4cccc5c4C(=O)N(C4CCC(=O)NC4=O)C5=O)CC3)cc2OC)ncc1Cl` (configuration not stated), for which the concentration for half-maximal inhibition (IC50) (in general, the concentration needed to halve the response being measured) in the series with A549 [1] was determined as 310 nM.
Compound `CNC(=O)c1ccccc1Nc1nc(Nc2ccc(N3CCN(CCCCC(=O)Nc4cccc5c4CN(C4CCC(=O)NC4=O)C5=O)CC3)cc2OC)ncc1Cl` (configuration not stated) came in with an IC50 in the series with A549 [1] of 270 nM.
The compound `CNC(=O)c1ccccc1Nc1nc(Nc2ccc(N3CCN(CCCCCC(=O)Nc4cccc5c4C(=O)N(C4CCC(=O)NC4=O)C5=O)CC3)cc2OC)ncc1Cl` (configuration not stated) registered an IC50 with A549 [1] of 260 nM.
On to `CNC(=O)c1ccccc1Nc1nc(Nc2ccc(N3CCN(CCCCC(=O)NCCNc4cccc5c4C(=O)N(C4CCC(=O)NC4=O)C5=O)CC3)cc2OC)ncc1Cl` (configuration not stated), for which, in the series with A549 [1], the IC50 is 4010 nM.
Regarding `CNC(=O)c1ccccc1Nc1nc(Nc2ccc(N3CCN(CCCCC(=O)Nc4cccc5c4C(=O)N(C4CCC(=O)NC4=O)C5=O)CC3)cc2OC)ncc1Cl` (configuration not stated), the Activity in the series with A549 [2] was 42.4%; in the series with A549 [3], 33.3%; in the series with A549 [5], 11.1%; with A549 [7] it was “Dde”; in the series on A549 [10], 21.7%; in the series with A549 [11], 13.7%. Besides, the Activity with A549 [15] stood at 3.6%. Also, the half-life (commonly the time in which the quantity being followed falls by half) at 2 µM in series [4] is over 4.82 h. Besides, the remaining at 1 h, 2 µM in [6] stood at 98.3%. Moreover, the remaining at 10 min, 2 µM in series [8] was found to be 112%. Also, the Papp B→A – broadly, how fast a substance crosses the layer from the basolateral side – at 2 h, 2 µM in series [9] came out at 4.7 ×10⁻⁶ cm/s. In addition, the remaining at 0.5 h, 2 µM in series [12] came out at 96.6%. This compound yielded an IC50 in the series on A549 [1] of 140 nM. The remaining at 2 h, 2 µM in [13] is 86.2%. Besides, in [14], the Papp A→B (in general, the apparent permeability from the apical to the basolateral side of a cell layer) at 2 h, 2 µM is 1.4 ×10⁻⁶ cm/s.
In the series with A549 [1], `CNC(=O)c1ccccc1Nc1nc(Nc2ccc(N3CCN(CCCCCCCCC(=O)Nc4cccc5c4C(=O)N(C4CCC(=O)NC4=O)C5=O)CC3)cc2OC)ncc1Cl` (configuration not stated) came in with a concentration for half-maximal inhibition (IC50) of 1350 nM.
`CNC(=O)c1ccccc1Nc1nc(Nc2ccc(N3CCN(CCCCCCCC(=O)NCCNc4cccc5c4C(=O)N(C4CCC(=O)NC4=O)C5=O)CC3)cc2OC)ncc1Cl` (configuration not stated) showed an IC50 with A549 [1] of 330 nM.
Compound `CNC(=O)c1ccccc1Nc1nc(Nc2ccc(N3CCN(CCCCCCCCNC(=O)CNc4cccc5c4C(=O)N(C4CCC(=O)NC4=O)C5=O)CC3)cc2OC)ncc1Cl` (configuration not stated) came in with a concentration for half-maximal inhibition (IC50) with A549 [1] of 2250 nM.
`CNC(=O)c1ccccc1Nc1nc(Nc2ccc(N3CCN(CCCCC(=O)Nc4ccc5c(c4)C(=O)N(C4CCC(=O)NC4=O)C5=O)CC3)cc2OC)ncc1Cl` (configuration not stated) displayed an IC50 in the series on A549 [1] of 3420 nM.
Still for that read-out and setting: the same measure for `CNC(=O)c1ccccc1Nc1nc(Nc2ccc(N3CCN(CCCCCCC(=O)Nc4cccc5c4C(=O)N(C4CCC(=O)NC4=O)C5=O)CC3)cc2OC)ncc1Cl` (configuration not stated): 790 nM.
Take `CNC(=O)c1ccccc1Nc1nc(Nc2ccc(N3CCOCC3)cc2OC)ncc1Cl`: the Activity result with A549 [7] was “Dde”. Besides, the IC50 in the series with A549 [1] stood at 1310 nM.
Consider `CNC(=O)c1ccccc1Nc1nc(Nc2ccc(N3CCN(CCCCCCCCCC(=O)Nc4cccc5c4C(=O)N(C4CCC(=O)NC4=O)C5=O)CC3)cc2OC)ncc1Cl` (configuration not stated), for which, in the series with A549 [1], the 50% inhibitory concentration (IC50) turned out to be 3580 nM.
